{"source": "PubChem BioAssay AID1671241", "molecular_target": "Macrophage colony-stimulating factor 1 receptor (Homo sapiens) (UniProt P07333)", "sequence (P07333 whole entry, looked up)": "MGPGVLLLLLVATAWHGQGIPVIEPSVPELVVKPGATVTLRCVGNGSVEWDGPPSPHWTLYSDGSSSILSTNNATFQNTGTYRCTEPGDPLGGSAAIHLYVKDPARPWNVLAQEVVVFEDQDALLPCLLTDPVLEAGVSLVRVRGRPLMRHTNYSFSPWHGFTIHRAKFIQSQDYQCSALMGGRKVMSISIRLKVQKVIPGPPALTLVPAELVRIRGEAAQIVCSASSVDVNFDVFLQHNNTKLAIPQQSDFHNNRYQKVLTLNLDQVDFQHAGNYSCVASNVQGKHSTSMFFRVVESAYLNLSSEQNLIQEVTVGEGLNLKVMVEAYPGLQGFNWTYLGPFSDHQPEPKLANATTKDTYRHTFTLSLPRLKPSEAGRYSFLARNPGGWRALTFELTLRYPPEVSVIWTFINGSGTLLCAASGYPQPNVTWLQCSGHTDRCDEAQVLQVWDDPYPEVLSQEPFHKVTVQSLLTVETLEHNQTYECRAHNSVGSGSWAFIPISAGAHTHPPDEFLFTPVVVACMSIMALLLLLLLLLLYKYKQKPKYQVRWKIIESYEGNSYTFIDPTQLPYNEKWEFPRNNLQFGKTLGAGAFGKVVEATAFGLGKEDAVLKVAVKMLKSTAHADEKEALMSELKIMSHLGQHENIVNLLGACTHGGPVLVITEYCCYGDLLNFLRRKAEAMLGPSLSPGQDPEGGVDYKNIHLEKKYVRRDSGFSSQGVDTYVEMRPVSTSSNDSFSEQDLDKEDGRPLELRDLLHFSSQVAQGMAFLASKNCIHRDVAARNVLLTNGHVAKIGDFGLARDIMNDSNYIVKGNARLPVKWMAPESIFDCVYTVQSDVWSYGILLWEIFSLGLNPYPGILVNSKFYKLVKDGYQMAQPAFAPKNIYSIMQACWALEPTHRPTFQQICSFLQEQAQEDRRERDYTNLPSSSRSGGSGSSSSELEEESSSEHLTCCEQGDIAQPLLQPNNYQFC", "assay": "CSF1R kinase inhibitors, dose response, biochemical, Z'-LYTE, FRET, protease-coupled, direct format (AID 1671241)", "conditions": "Z'-LYTE FRET kinase assay", "note": "pIC50: −log10 of the molar value."}
{"smiles": "COc1cc2ncnc(Nc3cccc(Cl)c3)c2cc1OC", "values": [{"measurement": "pIC50", "result": 5.22}]}
